Laboratory results: US5843449A, “Proteins and novel peptides derived from autoantigen for use in immunotherapy of autoimmune diseases” (Akzo Nobel N.V., priority 1996, dated 1998)
Read-outs that look alike come from different tables or passages of the source. Residues, ends and D or L forms follow the SMILES beside them.

What was measured:
[1] = system: PBMC from healthy donors; test: Proliferative responses of PBMC from healthy donors (3H-thymidine); assay type: cell-based, human; settings: 10% autologous serum
Experimental: PBMC's from healthy donors carrying the DR4Dw4 (DRB1*0401) or the DR1 specificity were collected as a control.
(§1) PBMC obtained from heparinized venous peripheral blood were isolated by standard centrifugation on a Ficoll-Paque gradient. […] Cultures were incubated in a total volume of 210 μl for 7 days at 37° C. in a humidified atmosphere of 5% CO2. Cultures were pulsed during the last 18 hours with 0.25 μCi^3 H-thymidine.

[2] = system: PBMC from RA patients; test: Proliferative responses of PBMC from RA patients (3H-thymidine); assay type: cell-based, human; settings: 10% autologous serum
Experimental: Peripheral blood mononuclear cells (PBMC) from patients who were diagnosed as suffering from RA according to the American Rheumatism Association (ARA) criteria (Arnett et al., Arthritis Rheum. 31:315, 1988) were collected.
as §1

[3] = molecular target: DR4Dw14 HLA-DR molecules; test: HLA-DR peptide binding assay (competition with biotinylated marker peptide), DR4Dw14; parameters: species or system human; settings: pH = 5, 50 nM biotin-spacer-IHA(307-319)F marker peptide
[4] = molecular target: T1, DR4Dw4 (DRB1*0401) HLA-DR molecules (Homo sapiens, UniProt P01903+P01911, A100K/A169T/F76Y/I96L/K127E/L162R/M171V/N62H/P40V/Q125Y/R42H/S133A/S149N/S66Y/V115G/V209L/W38E); test: HLA-DR peptide binding assay (competition with biotinylated marker peptide), DR4Dw4; settings: pH = 5, 50 nM biotin-spacer-IHA(307-319)F marker peptide
T1 construct: endogenous in cells; host or cells: BSM, EBV-transformed B-cell line

In the case of `CC(C)C[C@H](NC(=O)[C@@H](NC(=O)[C@H](Cc1ccccc1)NC(=O)[C@H](CO)NC(=O)[C@@H](N)CCCNC(=N)N)[C@@H](C)O)C(=O)N[C@@H](C)C(=O)N[C@@H](CO)C(=O)N[C@@H](CO)C(=O)N[C@@H](CCC(=O)O)C(=O)N[C@H](C(=O)NCC(=O)N[C@H](C(=O)NCC(=O)O)C(C)C)[C@@H](C)O` [Peptide 2] (H-RSFTLASSETGVG-OH), the “Proliferative response, stimulation index (SI)” value ([1]; healthy donor 155-03 (NR), peptide 10 μg/ml) is reported as 1, the “Proliferative response, stimulation index (SI)” value ([1]; healthy donor 155-03 (NR), peptide 100 μg/ml) is reported as 1 and the “Proliferative response, stimulation index (SI)” value ([1]; healthy donor 156-03 (NR), peptide 10 μg/ml) is reported as 1. The “Proliferative response, stimulation index (SI)” value ([1]; healthy donor 156-03 (NR), peptide 100 μg/ml) was under 1, the “Proliferative response, stimulation index (SI)” value ([1]; healthy donor 157-03 (NR), peptide 10 μg/ml) was under 2 and the “Proliferative response, stimulation index (SI)” value ([1]; healthy donor 157-03 (NR), peptide 100 μg/ml) was under 2. For the same compound, the “Proliferative response, stimulation index (SI)” value ([1]; healthy donor 157-04 (R), peptide 10 μg/ml) was 1, the “Proliferative response, stimulation index (SI)” value ([1]; healthy donor 157-04 (R), peptide 100 μg/ml) was under 1 and the “Proliferative response, stimulation index (SI)” value ([1]; healthy donor 168-03 (NR), peptide 10 μg/ml) was under 1. The “Proliferative response, stimulation index (SI)” value ([1]; healthy donor 168-03 (NR), peptide 100 μg/ml) was under 1, the “Proliferative response, stimulation index (SI)” value ([1]; healthy donor 168.02 (NR), peptide 10 μg/ml) was under 2 and the “Proliferative response, stimulation index (SI)” value ([1]; healthy donor 168.02 (NR), peptide 100 μg/ml) was under 1. The “Proliferative response, stimulation index (SI)” value ([1]; healthy donor 169-02 (NR), peptide 10 μg/ml) was 1, the “Proliferative response, stimulation index (SI)” value ([1]; healthy donor 169-02 (NR), peptide 100 μg/ml) was 1 and the “Proliferative response, stimulation index (SI)” value ([1]; healthy donor 230-01 (NR), peptide 10 μg/ml) was 1. For the same compound, the “Proliferative response, stimulation index (SI)” value ([1]; healthy donor 230-01 (NR), peptide 100 μg/ml) was 1, the “Proliferative response, stimulation index (SI)” value ([1]; healthy donor 235-0 (NR), peptide 10 μg/ml) was 1 and the “Proliferative response, stimulation index (SI)” value ([1]; healthy donor 235-0 (NR), peptide 100 μg/ml) was under 2. For the same compound, the “Proliferative response, stimulation index (SI)” value ([1]; healthy donor 235-01 (NR), peptide 10 μg/ml) was under 1, the “Proliferative response, stimulation index (SI)” value ([1]; healthy donor 235-01 (NR), peptide 100 μg/ml) was under 1 and the “Proliferative response, stimulation index (SI)” value ([1]; healthy donor 236-01 (NR), peptide 10 μg/ml) was 1. For the same compound, the “Proliferative response, stimulation index (SI)” value ([1]; healthy donor 236-01 (NR), peptide 100 μg/ml) was 1, the “Proliferative response, stimulation index (SI)” value ([1]; healthy donor 237-0 (NR), peptide 10 μg/ml) was under 2 and the “Proliferative response, stimulation index (SI)” value ([1]; healthy donor 237-0 (NR), peptide 100 μg/ml) was under 1. For the same compound, the “Proliferative response, stimulation index (SI)” value ([1]; healthy donor 237-01 (NR), peptide 10 μg/ml) was 1, the “Proliferative response, stimulation index (SI)” value ([1]; healthy donor 237-01 (NR), peptide 100 μg/ml) was 1 and the “Proliferative response, stimulation index (SI)” value ([1]; healthy donor 238-01 (NR), first line so labelled, peptide 10 μg/ml) was 1. For the same compound, the “Proliferative response, stimulation index (SI)” value ([1]; healthy donor 238-01 (NR), first line so labelled, peptide 100 μg/ml) was under 1, the “Proliferative response, stimulation index (SI)” value ([1]; healthy donor 238-01 (NR), second line so labelled, peptide 10 μg/ml) was 1 and the “Proliferative response, stimulation index (SI)” value ([1]; healthy donor 238-01 (NR), second line so labelled, peptide 100 μg/ml) was 1. The “Proliferative response, stimulation index (SI)” value ([1]; healthy donor 241-0 (NR), peptide 10 μg/ml) was 1, the “Proliferative response, stimulation index (SI)” value ([1]; healthy donor 241-0 (NR), peptide 100 μg/ml) was under 1 and the “Proliferative response, stimulation index (SI)” value ([1]; healthy donor 241-01 (R), peptide 10 μg/ml) was under 1. The “Proliferative response, stimulation index (SI)” value ([1]; healthy donor 241-01 (R), peptide 100 μg/ml) was under 1, the “Proliferative response, stimulation index (SI)” value ([2]; RA patient 191-03 (HR), disease state IV, peptide 10 μg/l) was 1 and the “Proliferative response, stimulation index (SI)” value ([2]; RA patient 191-03 (HR), disease state IV, peptide 100 μg/l) was under 2. For the same compound, the “Proliferative response, stimulation index (SI)” value ([2]; RA patient 215-0 (HR), disease state III-IV, peptide 25 μg/l) was 3, the “Proliferative response, stimulation index (SI)” value ([2]; RA patient 215-0 (HR), disease state III-IV, peptide 100 μg/l) was 19 and the “Proliferative response, stimulation index (SI)” value ([2]; RA patient 240-0 (HR), disease state II-III, peptide 25 μg/l) was 5. For the same compound, the “Proliferative response, stimulation index (SI)” value ([2]; RA patient 240-0 (HR), disease state II-III, peptide 100 μg/l) was 6, the “Proliferative response, stimulation index (SI)” value ([2]; RA patient 242-0 (HR), disease state I, peptide 25 μg/l) was 4 and the “Proliferative response, stimulation index (SI)” value ([2]; RA patient 243-0 (R), disease state III, peptide 10 μg/l) was 1. The “Proliferative response, stimulation index (SI)” value ([2]; RA patient 243-0 (R), disease state III, peptide 100 μg/l) was 6, the “Proliferative response, stimulation index (SI)” value ([2]; RA patient 247-0 (R), disease state III, peptide 10 μg/l) was 1 and the “Proliferative response, stimulation index (SI)” value ([2]; RA patient 247-0 (R), disease state III, peptide 100 μg/l) was 2. The “Proliferative response, stimulation index (SI)” value ([2]; RA patient 248-0 (R), disease state III, peptide 10 μg/l) was 1, the “Proliferative response, stimulation index (SI)” value ([2]; RA patient 248-0 (R), disease state III, peptide 100 μg/l) was 1 and the “Proliferative response, stimulation index (SI)” value ([2]; RA patient 272-0 (HR), disease state III-IV, peptide 10 μg/l) was under 1. The “Proliferative response, stimulation index (SI)” value ([2]; RA patient 272-0 (HR), disease state III-IV, peptide 100 μg/l) was under 1, the “Proliferative response, stimulation index (SI)” value ([2]; RA patient 273-0 (HR), disease state IV, peptide 10 μg/l) was 7 and the “Proliferative response, stimulation index (SI)” value ([2]; RA patient 273-0 (HR), disease state IV, peptide 100 μg/l) was 6. For the same compound, the “Proliferative response, stimulation index (SI)” value ([2]; RA patient 275-0 (HR), disease state III, peptide 10 μg/l) was 2, the “Proliferative response, stimulation index (SI)” value ([2]; RA patient 275-0 (HR), disease state III, peptide 100 μg/l) was 9 and the “Proliferative response, stimulation index (SI)” value ([2]; RA patient 276-0 (HR), disease state IV, burnt out, peptide 10 μg/l) was 3. For the same compound, the “Proliferative response, stimulation index (SI)” value ([2]; RA patient 276-0 (HR), disease state IV, burnt out, peptide 100 μg/l) was 1, the “Proliferative response, stimulation index (SI)” value ([2]; RA patient 280-0 (HR), disease state IV, burnt out, peptide 10 μg/l) was 1 and the “Proliferative response, stimulation index (SI)” value ([2]; RA patient 280-0 (HR), disease state IV, burnt out, peptide 100 μg/l) was 4. It also gave an IC50 ([3]; DOT Blot, densitometer, read-out: ^R IC50, DR4Dw14, DOT Blot) of 190 nM, an IC50 ([3]; SDS-PAGE, visual inspection, read-out: ^R IC50, DR4Dw14, SDS-PAGE) of 200 nM and an IC50 ([4]; DOT Blot, densitometer, read-out: ^R IC50, DR4Dw4, DOT Blot) of 80 nM. It also gave an IC50 ([4]; SDS-PAGE, visual inspection, read-out: ^R IC50, DR4Dw4, SDS-PAGE) of 40 nM.
